Measurements: patent publication US20240051985A1, “METTL3 MODULATORS” (ACCENT THERAPEUTICS, INC., priority 2020, published 2024)

Columns and labels:
[1] = test system: m^6A in cellular mRNA of MOLM-13 cells; assay: m^6A-mRNA LC-MS/MS assay (m^6A cellular assay); type: cell-based; details: Homo sapiens, Table 3, 24 hours
Experimental: 5×10^6 MOLM-13 (DSMZ) cells were seeded into 10 cm dishes in RPMI 1640 media containing 10% fetal bovine serum and placed in a humidified tissue culture incubator at 37° C. overnight. Compounds were resuspended in 100% DMSO and dosed into each dish at a fixed concentration to comprise an 8-point dose response with a 4-fold serial dilution ranging from 25 μM to 1.5 nM in 0.25% DMSO final and allowed to incubate for 24 hours in a humidified tissue culture incubator at 37° C. Cells were harvested by centrifugation followed by mRNA extraction using DIRECT Dynabeads mRNA DIRECT kit (Life Technologies). mRNA was quantified on NanoDrop spectrophotometer (Thermo Fisher Scientific) and digested into single nucleosides using Nucleoside Digestion Mix (New England Biolabs). Nucleosides are quantified with retention time on a BEH C18 column (Waters) and the nucleoside-to-base ion mass transition of 282.1-150.1 (m^6A) and 268-136 (A) on an API 6500+ triple quadrupole mass spectrometer. Quantification is performed in comparison with the standard curve, obtained from pure nucleoside standards (Selleck Chemicals) running with the same batch of samples. Percentage m^6A in cellular mRNA is calculated as 100*(m^6A/A).

PRMT5-MEP50 = PRMT5-MEP50 (Homo sapiens, UniProt O14744); assay: PRMT5 assay (3H-SAM flashplate); details: PRMT5 biochemical assay
PRMT5-MEP50, sequence (O14744 whole entry): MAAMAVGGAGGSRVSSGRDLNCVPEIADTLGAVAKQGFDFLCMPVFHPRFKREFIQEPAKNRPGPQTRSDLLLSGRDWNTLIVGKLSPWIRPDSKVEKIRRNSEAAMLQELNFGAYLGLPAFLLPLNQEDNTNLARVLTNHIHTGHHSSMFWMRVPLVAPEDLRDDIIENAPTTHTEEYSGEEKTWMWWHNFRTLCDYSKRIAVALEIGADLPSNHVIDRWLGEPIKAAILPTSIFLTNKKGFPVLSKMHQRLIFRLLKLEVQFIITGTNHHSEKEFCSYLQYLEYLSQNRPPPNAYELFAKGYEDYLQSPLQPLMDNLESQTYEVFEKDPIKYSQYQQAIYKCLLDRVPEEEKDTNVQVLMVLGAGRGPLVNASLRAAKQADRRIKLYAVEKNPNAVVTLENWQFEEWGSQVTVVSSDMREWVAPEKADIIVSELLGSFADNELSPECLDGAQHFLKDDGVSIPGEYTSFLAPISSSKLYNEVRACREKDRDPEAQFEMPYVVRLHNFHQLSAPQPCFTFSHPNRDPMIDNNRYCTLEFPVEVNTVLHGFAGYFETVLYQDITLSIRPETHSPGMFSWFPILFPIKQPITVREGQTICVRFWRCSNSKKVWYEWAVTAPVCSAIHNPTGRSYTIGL
PRMT5-MEP50, sequence (Q9BQA1 whole entry partner): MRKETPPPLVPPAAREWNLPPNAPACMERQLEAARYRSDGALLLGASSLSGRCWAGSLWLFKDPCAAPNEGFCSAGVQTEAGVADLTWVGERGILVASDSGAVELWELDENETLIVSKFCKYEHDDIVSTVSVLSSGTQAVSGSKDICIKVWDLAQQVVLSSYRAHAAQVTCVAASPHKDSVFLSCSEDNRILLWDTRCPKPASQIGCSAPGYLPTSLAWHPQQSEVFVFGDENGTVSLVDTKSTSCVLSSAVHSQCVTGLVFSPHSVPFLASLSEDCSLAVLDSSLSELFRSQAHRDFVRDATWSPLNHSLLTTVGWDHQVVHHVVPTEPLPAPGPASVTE
Procedure, shortened: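 Radiometric methyl-transfer read-out: 3H-methyl transferred to a 3′-biotinylated, acetylated H4 peptide substrate (100 nM) from 3H-SAM (250 nM), captured on streptavidin scintillation plates. Enzyme complex 2.5 nM, pH 8.0 Tris buffer with DTT and Tween, compound preincubation 5 min, 60 min reaction stopped with excess unlabeled SAM.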

METTL3/METTL14 = METTL3/METTL14 (Homo sapiens, UniProt Q86U44); assay: METTL3-14 standard enzyme assay (3H-SAM flashplate); details: METTL3 biochemical assay
METTL3/METTL14, sequence (Q86U44 whole entry, species assumed): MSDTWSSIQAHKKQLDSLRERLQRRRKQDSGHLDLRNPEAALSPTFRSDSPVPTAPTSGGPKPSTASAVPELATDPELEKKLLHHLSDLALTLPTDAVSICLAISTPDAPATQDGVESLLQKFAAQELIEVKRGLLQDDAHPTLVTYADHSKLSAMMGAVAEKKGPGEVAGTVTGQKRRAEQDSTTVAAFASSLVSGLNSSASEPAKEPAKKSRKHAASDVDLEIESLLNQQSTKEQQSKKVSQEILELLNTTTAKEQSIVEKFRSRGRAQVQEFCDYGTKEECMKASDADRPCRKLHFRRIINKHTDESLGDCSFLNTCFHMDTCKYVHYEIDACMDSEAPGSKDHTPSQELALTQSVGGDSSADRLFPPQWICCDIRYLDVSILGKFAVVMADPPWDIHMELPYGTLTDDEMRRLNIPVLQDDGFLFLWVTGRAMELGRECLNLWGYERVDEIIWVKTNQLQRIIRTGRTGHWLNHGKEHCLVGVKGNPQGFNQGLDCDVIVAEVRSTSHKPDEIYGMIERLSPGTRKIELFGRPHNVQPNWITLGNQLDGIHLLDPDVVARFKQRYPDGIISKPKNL
METTL3/METTL14, sequence (Q9HCE5 whole entry partner, species assumed): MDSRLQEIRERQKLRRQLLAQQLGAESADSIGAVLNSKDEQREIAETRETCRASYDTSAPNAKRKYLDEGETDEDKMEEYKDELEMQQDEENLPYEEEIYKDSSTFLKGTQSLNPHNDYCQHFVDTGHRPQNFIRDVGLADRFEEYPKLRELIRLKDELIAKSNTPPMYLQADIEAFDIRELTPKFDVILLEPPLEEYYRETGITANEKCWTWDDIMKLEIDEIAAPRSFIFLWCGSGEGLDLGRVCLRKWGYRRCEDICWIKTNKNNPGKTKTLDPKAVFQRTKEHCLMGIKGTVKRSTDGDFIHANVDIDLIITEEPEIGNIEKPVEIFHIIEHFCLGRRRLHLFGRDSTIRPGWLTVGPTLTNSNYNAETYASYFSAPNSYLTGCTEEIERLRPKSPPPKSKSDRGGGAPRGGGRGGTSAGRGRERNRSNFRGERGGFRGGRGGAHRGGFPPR
Procedure, shortened: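 Radiometric methyltransferase read-out: after quenching with excess unlabelled SAM (15 μM), biotinylated RNA was captured on streptavidin flashplates (2 h, 25° C) and counted. Reactions contained 2.5 nM enzyme (5 min preincubation), 100 nM RNA and 100 nM 3H-SAM, ran 30 min in HEPES pH 7.5 buffer with KCl, MgCl2, DTT.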

FLT3-ITD = molecular target: T1, FLT3-ITD (Homo sapiens, UniProt P36888); assay: FLT3-ITD LanthaScreen assay; type: biochemical; details: Table 4
T1 sequence (P36888 1-993): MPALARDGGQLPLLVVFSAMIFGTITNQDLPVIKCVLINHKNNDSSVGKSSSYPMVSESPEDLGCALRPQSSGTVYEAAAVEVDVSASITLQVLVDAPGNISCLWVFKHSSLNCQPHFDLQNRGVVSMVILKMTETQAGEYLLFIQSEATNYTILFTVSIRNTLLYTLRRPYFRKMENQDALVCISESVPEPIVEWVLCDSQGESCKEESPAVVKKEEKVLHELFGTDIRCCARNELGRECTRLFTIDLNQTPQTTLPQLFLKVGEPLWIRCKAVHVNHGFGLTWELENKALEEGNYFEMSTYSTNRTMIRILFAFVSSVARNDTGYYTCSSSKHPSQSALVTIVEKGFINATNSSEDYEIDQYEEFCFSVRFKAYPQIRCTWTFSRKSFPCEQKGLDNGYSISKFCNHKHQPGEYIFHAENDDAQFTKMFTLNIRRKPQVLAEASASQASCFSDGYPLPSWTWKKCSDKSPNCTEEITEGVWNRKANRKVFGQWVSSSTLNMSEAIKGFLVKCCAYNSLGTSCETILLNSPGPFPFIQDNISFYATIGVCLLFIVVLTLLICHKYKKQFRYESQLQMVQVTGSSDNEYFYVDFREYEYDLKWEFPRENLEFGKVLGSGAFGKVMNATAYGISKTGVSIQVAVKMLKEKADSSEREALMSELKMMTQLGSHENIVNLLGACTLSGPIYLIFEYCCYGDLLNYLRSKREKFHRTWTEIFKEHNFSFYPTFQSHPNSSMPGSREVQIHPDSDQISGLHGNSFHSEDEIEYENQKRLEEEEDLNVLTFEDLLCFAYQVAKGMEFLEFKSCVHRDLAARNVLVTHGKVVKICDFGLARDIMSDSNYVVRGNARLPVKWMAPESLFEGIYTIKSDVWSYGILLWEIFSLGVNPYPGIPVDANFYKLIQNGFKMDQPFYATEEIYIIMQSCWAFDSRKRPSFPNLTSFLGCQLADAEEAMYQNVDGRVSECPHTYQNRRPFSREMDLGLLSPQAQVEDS
Experimental: (§1) FLT3/FLT3-ITD LanthaScreen Assays
(§2) Assays were performed in a 10 μl-volume in 384-well polypropylene microplates (Perkin Elmer Proxiplate, cat. No. 6059480) at ambient temperature. Optimized 1× assay buffer was 50 mM Hepes pH 7.5, 2 mM DTT, 0.01% Tween, 0.01% BSA, 10 mM MgCl2. For compound screening FLT3 (final concentration, f.c.=[…]) or FLT3-ITD (f.c.=[…]) was added using a Multidrop Combi (ThermoFisher Scientific, Waltham, MA) and preincubated for 10 min. Reactions were started by adding fluorescein-poly GT (f.c.=200 nM) and ATP (f.c.=57 μM) substrates. Reactions proceeded for 40 minutes. The reactions were stopped with a detection mixture of EDTA (f.c.=20 mM) and terbium-conjugated anti-phoso tyrosine antibody pY20 (f.c.=2 nM). The plates were sealed and read on an Envision (PerkinElmer, Waltham, MA) using 340 nm excitation and emission reads at 495 and 520 nM.

FLT3 = molecular target: T2, FLT3 (Homo sapiens, UniProt P36888); assay: FLT3 LanthaScreen assay; type: biochemical; details: Table 4
T2 sequence (P36888 27-993): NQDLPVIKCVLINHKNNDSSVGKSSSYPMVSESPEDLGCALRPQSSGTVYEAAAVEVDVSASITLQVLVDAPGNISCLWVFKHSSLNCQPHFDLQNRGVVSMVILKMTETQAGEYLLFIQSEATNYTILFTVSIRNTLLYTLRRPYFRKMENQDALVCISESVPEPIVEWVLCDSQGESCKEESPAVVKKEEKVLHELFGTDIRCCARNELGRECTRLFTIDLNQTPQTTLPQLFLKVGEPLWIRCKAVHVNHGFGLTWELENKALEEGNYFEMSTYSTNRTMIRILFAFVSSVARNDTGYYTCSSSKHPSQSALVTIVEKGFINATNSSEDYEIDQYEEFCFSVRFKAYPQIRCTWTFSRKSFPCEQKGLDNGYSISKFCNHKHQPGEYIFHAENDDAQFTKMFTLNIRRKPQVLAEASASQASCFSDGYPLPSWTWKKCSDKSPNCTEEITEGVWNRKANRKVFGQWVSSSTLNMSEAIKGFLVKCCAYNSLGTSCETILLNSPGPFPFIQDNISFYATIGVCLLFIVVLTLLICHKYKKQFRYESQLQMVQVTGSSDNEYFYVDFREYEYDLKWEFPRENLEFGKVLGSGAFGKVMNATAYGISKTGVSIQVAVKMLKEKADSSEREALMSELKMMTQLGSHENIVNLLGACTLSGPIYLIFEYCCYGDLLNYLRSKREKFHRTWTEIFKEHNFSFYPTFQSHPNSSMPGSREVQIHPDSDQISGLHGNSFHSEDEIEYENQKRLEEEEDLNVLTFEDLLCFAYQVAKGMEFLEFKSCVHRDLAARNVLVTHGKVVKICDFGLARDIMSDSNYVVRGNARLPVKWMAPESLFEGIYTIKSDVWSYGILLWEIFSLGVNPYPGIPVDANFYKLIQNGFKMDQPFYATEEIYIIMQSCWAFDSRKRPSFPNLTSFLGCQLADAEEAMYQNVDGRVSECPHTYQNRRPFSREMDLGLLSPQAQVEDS
Experimental: as §1, §2

| SMILES | IC50 [1] | IC50 (PRMT5-MEP50; Table 3) | IC50 (METTL3/METTL14; Table 3) | IC50 (PRMT5-MEP50; Table 4) | IC50 (FLT3-ITD) | IC50 (FLT3) | IC50 (METTL3/METTL14; Table 4) |
| --- | --- | --- | --- | --- | --- | --- | --- |
| Cn1ccc(-c2cn([C@@H]3O[C@H](C(=O)Nc4ccc5ccc(N6CCC6)nc5c4)[C@@H](O)[C@H]3O)c3ncnc(N)c23)n1 [Compound I-10, (2S,3S,4R,5R)-5-[4-amino-5-(1-methyl-1H-pyrazol-3-yl)-7H-pyrrolo[2,3-d]pyrimidin-7-yl]-N-[2-(azetidin-1-yl)quinolin-7-yl]-3,4-dihydroxyoxolane-2-carboxamide] | < 1000 nM | 10 to 100 nM | < 10 nM |  |  |  |  |
| CNc1ccc2ccc(NC(=O)[C@H]3O[C@@H](n4cc(-c5ccn(C)n5)c5c(N)ncnc54)[C@H](O)[C@@H]3O)cc2n1 [Compound I-32, (2S,3S,4R,5R)-5-[4-amino-5-(1-methyl-1H-pyrazol-3-yl)-7H-pyrrolo[2,3-d]pyrimidin-7-yl]-3,4-dihydroxy-N-[2-(methylamino)quinolin-7-yl]oxolane-2-carboxamide] | < 1000 nM | < 10 nM | < 10 nM |  |  |  |  |
| Cn1ccc(-c2cn([C@@H]3O[C@H](C(=O)NC4CCc5nc[nH]c5C4)[C@@H](O)[C@H]3O)c3ncnc(N)c23)n1 (stereo partly drawn) [Compound I-194] |  |  |  | 100 to 1000 nM | ≥ 1000 nM | ≥ 1000 nM | 10 to 100 nM |
| CN1CCC(N(CCCO)C(=O)[C@H]2O[C@@H](n3cc(-c4ccn(C)n4)c4c(N)ncnc43)[C@H](O)[C@@H]2O)CC1 [Compound I-145] |  |  |  | < 10 nM | ≥ 1000 nM | ≥ 1000 nM | 100 to 1000 nM |

The remaining lines, values ahead:

| IC50 [1] | IC50 (PRMT5-MEP50; Table 3) | IC50 (METTL3/METTL14; Table 3) | IC50 (PRMT5-MEP50; Table 4) | IC50 (FLT3-ITD) | IC50 (FLT3) | IC50 (METTL3/METTL14; Table 4) | SMILES |
| --- | --- | --- | --- | --- | --- | --- | --- |
|  |  |  | 100 to 1000 nM | ≥ 1000 nM | ≥ 1000 nM | 100 to 1000 nM | CN1CCC(NC(=O)[C@H]2O[C@@H](n3cc(C4CCCC4)c4c(N)ncnc43)[C@H](O)[C@@H]2O)CC1 [Compound I-56, (2S,3S,4R,5R)-5-(4-amino-5-cyclopentyl-7H-pyrrolo[2,3-d]pyrimidin-7-yl)-3,4-dihydroxy-N-(1-methylpiperidin-4-yl)tetrahydrofuran-2-carboxamide] |
|  |  |  | 10 to 100 nM | ≥ 1000 nM | ≥ 1000 nM | 100 to 1000 nM | CNC(=O)Nc1cc(NC(=O)[C@H]2O[C@@H](n3cc(-c4ccn(C)n4)c4c(N)ncnc43)[C@H](O)[C@@H]2O)ccn1 [Compound I-143] |
|  |  |  | 100 to 1000 nM | ≥ 1000 nM | ≥ 1000 nM | 100 to 1000 nM | CN1CCC(NC(=O)[C@H]2O[C@@H](n3cc(C4CCCO4)c4c(N)ncnc43)[C@H](O)[C@@H]2O)CC1 (stereo partly drawn) [Compound I-53, (2S,3S,4R,5R)-5-[4-amino-5-(oxolan-2-yl)-7H-pyrrolo[2,3-d]pyrimidin-7-yl]-3,4-dihydroxy-N-(1-methylpiperidin-4-yl)oxolane-2-carboxamide] |
|  |  |  | 100 to 1000 nM | ≥ 1000 nM | ≥ 1000 nM | 100 to 1000 nM | C[C@H]1C[C@H](NC(=O)[C@H]2O[C@@H](n3cc(-c4ccn(C)n4)c4c(N)ncnc43)[C@H](O)[C@@H]2O)CCN1C [Compound I-234] |
